The record followed here is patent publication US20090054413A1, “Novel 5,6-Dihydropyrazolo[3,4-E] [L,4]Diazepin-4 (IH) -One Derivatives for the Treatment of Asthma and Chronic Obstructive Pulmonary Disease” (AstraZeneca AB, priority 2005, published 2009).

Each structure is given as a SMILES string.

Sequence of recombinant Human Phosphodiesterase B2 (PDE4B2) (Q07343 1-564 isoform Q07343-2): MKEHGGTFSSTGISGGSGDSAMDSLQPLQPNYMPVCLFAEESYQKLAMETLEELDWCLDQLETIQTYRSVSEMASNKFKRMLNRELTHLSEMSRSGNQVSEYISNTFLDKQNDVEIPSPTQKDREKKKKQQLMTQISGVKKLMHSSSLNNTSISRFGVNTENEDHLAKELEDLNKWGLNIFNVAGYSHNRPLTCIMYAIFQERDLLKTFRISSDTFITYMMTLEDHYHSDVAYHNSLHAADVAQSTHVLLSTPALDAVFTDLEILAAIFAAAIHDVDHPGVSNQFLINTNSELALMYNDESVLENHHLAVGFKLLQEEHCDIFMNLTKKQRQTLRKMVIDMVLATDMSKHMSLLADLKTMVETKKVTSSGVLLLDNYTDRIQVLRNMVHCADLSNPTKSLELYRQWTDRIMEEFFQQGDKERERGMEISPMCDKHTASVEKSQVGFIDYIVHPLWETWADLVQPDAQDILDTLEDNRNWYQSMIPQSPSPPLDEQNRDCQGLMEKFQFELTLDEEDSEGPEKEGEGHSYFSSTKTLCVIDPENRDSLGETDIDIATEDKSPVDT

The experiment concerns the target recombinant Human Phosphodiesterase B2 (PDE4B2) (Homo sapiens, UniProt Q07343). The experiment can be described thus: Human Phosphodiesterase B2 Alpha Screen Assay. Type of experiment: biochemical. Conditions: recombinant human PDE4B2, cAMP substrate, 60 min at room temperature. As to the method:
Human Phosphodiesterase B2 Alpha Screen Assay
The assay uses recombinant Human Phosphodiesterase B2 (PDE4B2) produced in house (PrAZL0133), stored at −20° C. The substrate uses cAMP, part of the Alpha Screen cAMP kit (Perkin Elmer, Cat #6760625M), stored at 4° C. The Alpha Screen kit also includes biotinylated cAMP, acceptor and donor beads.
The assay additions were as follows: Test compounds and controls were added to white 384-well flat-bottom plates (Greiner, Cat #781075), 0.2 μl in 100% DMSO, followed by 10 μl PDE4B2 in reaction buffer. The reaction buffer constitution was: 50 mM Tris (pH 7.5), 8.3 mM MgCl2, 1.7 mM EGTA and 0.01% (w/v) Brij®35. The enzyme and the compounds were incubated at room temperature for 15 minutes. Then 10 μl cAMP in reaction buffer was added. The assay was stopped after 60 minutes incubation at room temperature by adding 10 μl acceptor beads in detection buffer with 40 mM EDTA. The detection buffer constitution was: 5 mM Tris (pH 7.5), 0.1% (w/v) BSA and 0.1% (v/v) Tween 20. This addition followed by an addition of 10 μl donor beads in detection buffer, with biotinylated cAMP. The plates were then incubated, dark at room temperature, for 5 hours followed by measurement on a Fusion™-α analyser. IC50 values (presented in Table 1) were determined using Xlfit curve fitting using model 205.
For `CCc1nn(C2CCCC2)c2c1C(=O)NCC(CCC(=O)O)=N2` [Example 28, 3-(1-Cyclopentyl-3-ethyl-4-oxo-1,4,5,6-tetrahydropyrazolo[3,4-e][1,4]diazepin-7-yl)propanoic acid], the IC50 was determined as 65.3 nM.

Take `CCc1nn(C2CCCC2)c2c1C(=O)NCC(CCC(=O)NCCN(C)C)=N2` [Example 29, 3-(1-Cyclopentyl-3-ethyl-4-oxo-1,4,5,6-tetrahydropyrazolo[3,4-e][1,4]diazepin-7-yl)-N-[2-(dimethylamino)ethyl]propanamide]: the IC50 was 4480 nM. To `CCc1nn(C2CCCC2)c2c1C(=O)NCC(c1ccccc1)N2` (stereo not drawn) [Example 30, 1-Cyclopentyl-3-ethyl-7-phenyl-5,6,7,8-tetrahydropyrazolo[3,4-e][1,4]diazepin-4(1H)-one] belongs 158 nM; to `CSc1nn(-c2ccccc2)c2c1C(=O)NCC(c1ccccc1)=N2` [Example 31, 3-(Methylthio)-1,7-diphenyl-5,6-dihydropyrazolo[3,4-e][1,4]diazepin-4(1H)-one], 426 nM; to `CCc1nn(C2CCS(=O)(=O)C2)c2c1C(=O)NCC(c1ccccc1)=N2` (stereo not drawn) [Example 32, 1-(1,1-Dioxidotetrahydrothien-3-yl)-3-ethyl-7-phenyl-5,6-dihydropyrazolo[3,4-e][1,4]diazepin-4(1H)-one], 5.8 nM.

For the compound `CCc1nn(C2CCSCC2)c2c1C(=O)NCC(c1ccccc1)=N2` [Example 33, 3-Ethyl-7-phenyl-1-tetrahydro-2H-thiopyran-4-yl-5,6-dihydropyrazolo[3,4-e][1,4]diazepin-4(1H)-one], the concentration for half-maximal inhibition (IC50) worked out at 3.9 nM. In the case of `CCc1nn(C2CC[S+]([O-])CC2)c2c1C(=O)NCC(c1ccccc1)=N2` (stereo not drawn) [Example 34, 3-Ethyl-1-(1-oxidotetrahydro-2H-thiopyran-4-yl)-7-phenyl-5,6-dihydropyrazolo[3,4-e][1,4]diazepin-4(1H)-one], the IC50 turned out to be 99.1 nM. With `CCc1nn(C2CCS(=O)(=O)CC2)c2c1C(=O)NCC(c1ccccc1)=N2` [Example 35, 1-(1,1-Dioxidotetrahydro-2H-thiopyran-4-yl)-3-ethyl-7-phenyl-5,6-dihydropyrazolo[3,4-e][1,4]diazepin-4(1H)-one], the half-inhibitory concentration (IC50) was 40.3 nM. `Cc1nn(C2CCCC2)c2c1C(=O)NCC(c1ccccc1)=N2` [Example 36, 1-Cyclopentyl-3-methyl-7-phenyl-5,6-dihydropyrazolo[3,4-e][1,4]diazepin-4(1H)-one]: the IC50 stood at 9.49 nM.
